Measured values published in US6458935B1, “Radiolabeled farnesyl-protein transferase inhibitors” (Merck & Co., Inc., priority 1999, dated 2002).

System: FPTase
Assay: PET Imaging in Dogs: blockade of [11C] radiotracer binding
Type: in vivo
Conditions: dose of 10 mpk infused over 5 minutes; female beagle dogs; radiotracer [11C] compound of Example 6
Protocol: Female beagle dogs weighing 7.7-14.6 kg (11.0±2.3 kg) are fasted for at least 12 hours allowing water intake ad libitum, and are premedicated with 0.3-0.4 mL Acepromazine injected i.m. on the day of the experiment. A 20 G two inch venous catheter is placed into the right front leg ulnar vein through which anesthesia is introduced by sodium pentobarbital 25-30 mg/kg in 3-4 ml and maintained with additional pentobarbital at an average dose of 3 mg/kg/hr. Another catheter is inserted into the contralateral ulnar vein for radiotracer administration.
Oxygen saturation of circulating blood is measured with a pulse oximeter (Nellcor Inc., Hayward, Calif.) placed on the tongue of the animal. Circulatory volume is maintained by intravenous infusion of isotonic saline. A 22 G cannula is inserted into the anterior tibial or distal femoral artery for continuous pressure monitoring (Spacelabs™, model 90603A). EKG, heart rate, and core temperature are monitored continuously. In particular, EKG is observed for ST segment changes and arrhythmias. […]
For uninhibited distribution of radiotracer, regions of interest (ROIs) are drawn on the reconstructed image includes the kidney cortex and a region of liver which is removed from the gallbladder images. […] Data are expressed as radioactivity per unit time per unit volume (μCi/cc/mCi injected dose). […]

Question: “(S)-1-(3-Fluoroethoxy-5-bromophenyl)-4-[1-(4-cyanobenzyl) -5-imidazoylmethyl]-5-[(methanesulfonyl)ethyl]-2-piperazinone [Example 2]” was tested. Which “block of PET radiotracer binding (maximum enzyme-specific signal)” value did it give?
Answer: completely block radiotracer binding
